Data published in publication PMC10425210 (The Journal of Clinical Investigation, 2023).
“And” between values parts separate entries of the source, which are not always exact repeats. Identical values can stand only once. “Also recorded” adds a separate entry of the source. Like-named read-outs stand apart in the source and are kept apart here.

What was measured:
SHIV-SF162P3 = format: in vivo, rhesus macaques
HIV-1 = experiment: Antiviral assay in human PBMCs infected with HIV-1 clinical isolates; format: cell-based; conditions: HIV-1, human PBMCs; EC95 x human plasma shift
[1] = through week 52 of treatment across clinical studies; cited from earlier work
[2] = cited from earlier work
[3] = 927 mg sc twice-yearly after 600 mg oral on days 1 and 2

## CC(C)(C#Cc1ccc(-c2ccc(Cl)c3c(NS(C)(=O)=O)nn(CC(F)(F)F)c23)c([C@H](Cc2cc(F)cc(F)c2)NC(=O)Cn2nc(C(F)(F)F)c3c2C(F)(F)[C@@H]2C[C@H]32)n1)S(C)(=O)=O [LEN, Lenacapavir]
SHIV-SF162P3; animal V430, 50 mg/kg, Wk 10 post challenge
  Intact SHIV DNA / 10M PBMC: 1 / 10M PBMC
SHIV-SF162P3; animal V430, 50 mg/kg, week 0 post challenge
  Plasma SHIV RNA: 62 copies per mL
SHIV-SF162P3; animal V430, 50 mg/kg, week 1 post challenge
  Plasma SHIV RNA: 62 copies per mL
SHIV-SF162P3; animal V430, 50 mg/kg, week 2 post challenge
  Plasma SHIV RNA: 62 copies per mL
SHIV-SF162P3; animal V430, 50 mg/kg, week 3 post challenge
  Plasma SHIV RNA: 62 copies per mL
SHIV-SF162P3; animal V430, 50 mg/kg, week 4 post challenge
  Plasma SHIV RNA: 62 copies per mL
SHIV-SF162P3; animal V430, 50 mg/kg, week 5 post challenge
  Plasma SHIV RNA: 62 copies per mL
SHIV-SF162P3; animal V430, 50 mg/kg, week 6 post challenge
  Plasma SHIV RNA: 62 copies per mL
SHIV-SF162P3; animal V430, 50 mg/kg, week 7 post challenge
  Plasma SHIV RNA: 62 copies per mL
SHIV-SF162P3; animal V430, 50 mg/kg, week 8 post challenge
  Plasma SHIV RNA: 62 copies per mL
SHIV-SF162P3; animal V430, 50 mg/kg, week 9 post challenge
  Plasma SHIV RNA: 62 copies per mL
SHIV-SF162P3; animal V430, 50 mg/kg, week 10 post challenge
  Plasma SHIV RNA: 62 copies per mL
SHIV-SF162P3; animal V430, 50 mg/kg, week 11 post challenge
  Plasma SHIV RNA: 62 copies per mL
SHIV-SF162P3; animal V430, 50 mg/kg, week 12 post challenge
  Plasma SHIV RNA: 62 copies per mL
SHIV-SF162P3; animal V430, 50 mg/kg, week 13 post challenge
  Plasma SHIV RNA: 62 copies per mL
SHIV-SF162P3; animal V430, 50 mg/kg, week 14 post challenge
  Plasma SHIV RNA: 62 copies per mL
SHIV-SF162P3; animal V430, 50 mg/kg, week 15 post challenge
  Plasma SHIV RNA: 62 copies per mL
SHIV-SF162P3; animal V430, 50 mg/kg, week 16 post challenge
  Plasma SHIV RNA: 62 copies per mL
SHIV-SF162P3; animal V430, 50 mg/kg, week 17 post challenge
  Plasma SHIV RNA: 62 copies per mL
SHIV-SF162P3; animal V430, 50 mg/kg, week 18 post challenge
  Plasma SHIV RNA: 62 copies per mL
SHIV-SF162P3; animal V435, 75 mg/kg
  Challenge outcome: Infected
SHIV-SF162P3; animal V435, 75 mg/kg, Wk 2 post challenge
  Intact SHIV DNA / 10M PBMC: 1890.13 / 10M PBMC
SHIV-SF162P3; animal V435, 75 mg/kg, week 0 post challenge
  Plasma SHIV RNA: 62 copies per mL
SHIV-SF162P3; animal V435, 75 mg/kg, week 1 post challenge
  Plasma SHIV RNA: 62 copies per mL
SHIV-SF162P3; animal V435, 75 mg/kg, week 2 post challenge
  Plasma SHIV RNA: 756278 copies per mL
SHIV-SF162P3; animal V435, 75 mg/kg, week 6 post challenge
  Plasma SHIV RNA: 242042 copies per mL
SHIV-SF162P3; animal V435, 75 mg/kg, week 7 post challenge
  Plasma SHIV RNA: 286179 copies per mL
SHIV-SF162P3; animal V435, 75 mg/kg, week 9 post challenge
  Plasma SHIV RNA: 32896 copies per mL
SHIV-SF162P3; animal V435, 75 mg/kg, week 10 post challenge
  Plasma SHIV RNA: 40477 copies per mL
SHIV-SF162P3; animal V435, 75 mg/kg, week 11 post challenge
  Plasma SHIV RNA: 31394 copies per mL
SHIV-SF162P3; animal V435, 75 mg/kg, week 12 post challenge
  Plasma SHIV RNA: 7502 copies per mL
SHIV-SF162P3; animal V435, 75 mg/kg, week 13 post challenge
  Plasma SHIV RNA: 16622 copies per mL
SHIV-SF162P3; animal V435, 75 mg/kg, week 14 post challenge
  Plasma SHIV RNA: 6647 copies per mL
SHIV-SF162P3; animal V435, 75 mg/kg, week 15 post challenge
  Plasma SHIV RNA: 46117 copies per mL
SHIV-SF162P3; animal V435, 75 mg/kg, week 16 post challenge
  Plasma SHIV RNA: 21357 copies per mL
SHIV-SF162P3; animal V435, 75 mg/kg, week 17 post challenge
  Plasma SHIV RNA: 55828 copies per mL
SHIV-SF162P3; animal V435, 75 mg/kg, week 18 post challenge
  Plasma SHIV RNA: 34073 copies per mL
SHIV-SF162P3; animal V435, 75 mg/kg, week 19 post challenge
  Plasma SHIV RNA: 913 copies per mL
SHIV-SF162P3; animal V435, 75 mg/kg, week 20 post challenge
  Plasma SHIV RNA: 62 copies per mL
SHIV-SF162P3; animal V470, 50 mg/kg
  Challenge outcome: Not infected
SHIV-SF162P3; animal V470, 50 mg/kg, Wk 2 post challenge
  Intact SHIV DNA / 10M PBMC: 1 / 10M PBMC
SHIV-SF162P3; animal V470, 50 mg/kg, Wk 10 post challenge
  Intact SHIV DNA / 10M PBMC: 1 / 10M PBMC
SHIV-SF162P3; animal V470, 50 mg/kg, week 0 post challenge
  Plasma SHIV RNA: 62 copies per mL
SHIV-SF162P3; animal V470, 50 mg/kg, week 1 post challenge
  Plasma SHIV RNA: 62 copies per mL
SHIV-SF162P3; animal V470, 50 mg/kg, week 2 post challenge
  Plasma SHIV RNA: 62 copies per mL
SHIV-SF162P3; animal V470, 50 mg/kg, week 3 post challenge
  Plasma SHIV RNA: 62 copies per mL
SHIV-SF162P3; animal V470, 50 mg/kg, week 4 post challenge
  Plasma SHIV RNA: 62 copies per mL
SHIV-SF162P3; animal V470, 50 mg/kg, week 5 post challenge
  Plasma SHIV RNA: 62 copies per mL
SHIV-SF162P3; animal V470, 50 mg/kg, week 6 post challenge
  Plasma SHIV RNA: 62 copies per mL
SHIV-SF162P3; animal V470, 50 mg/kg, week 7 post challenge
  Plasma SHIV RNA: 62 copies per mL
SHIV-SF162P3; animal V470, 50 mg/kg, week 8 post challenge
  Plasma SHIV RNA: 62 copies per mL
SHIV-SF162P3; animal V470, 50 mg/kg, week 9 post challenge
  Plasma SHIV RNA: 62 copies per mL
SHIV-SF162P3; animal V470, 50 mg/kg, week 10 post challenge
  Plasma SHIV RNA: 62 copies per mL
SHIV-SF162P3; animal V470, 50 mg/kg, week 11 post challenge
  Plasma SHIV RNA: 62 copies per mL
SHIV-SF162P3; animal V470, 50 mg/kg, week 12 post challenge
  Plasma SHIV RNA: 62 copies per mL
SHIV-SF162P3; animal V470, 50 mg/kg, week 13 post challenge
  Plasma SHIV RNA: 62 copies per mL
SHIV-SF162P3; animal V470, 50 mg/kg, week 14 post challenge
  Plasma SHIV RNA: 62 copies per mL
SHIV-SF162P3; animal V470, 50 mg/kg, week 15 post challenge
  Plasma SHIV RNA: 62 copies per mL
SHIV-SF162P3; animal V470, 50 mg/kg, week 16 post challenge
  Plasma SHIV RNA: 62 copies per mL
SHIV-SF162P3; animal V470, 50 mg/kg, week 17 post challenge
  Plasma SHIV RNA: 62 copies per mL
SHIV-SF162P3; animal V470, 50 mg/kg, week 18 post challenge
  Plasma SHIV RNA: 62 copies per mL
SHIV-SF162P3; compared with the untreated group
  reduction of the rate of infection per exposure: more than 2 fold
SHIV-SF162P3; eight SHIV-negative animals, weeks 2 and 10
  intact proviral DNA assay (IPDA) signal: No signal was detected
SHIV-SF162P3; individual LEN-dosed infected animals
  Peak Plasma SHIV RNA: 299412 copies/mL and 1140343 copies/mL and 35193943 copies/mL
SHIV-SF162P3; of 11 LEN-dosed animals, 100 TCID50, 2 weeks after challenge
  animals viremic after challenge: 3 animals
SHIV-SF162P3; other 8 animals, through week 10 after challenge
  anti-capsid (p27) antibody ELISA: no antibodies were detectable
SHIV-SF162P3; plasma PCR, serology, IPDA
  LEN-dosed animals with confirmed uninfected status: 8 of 11
SHIV-SF162P3; rhesus monkey, in vivo
  Challenge outcome: Not infected
  Intact SHIV DNA / 10M PBMC: 1 / 10M PBMC
  Plasma SHIV RNA: 62 copies per mL
  resistance emergence, capsid sequence of plasma virus: no emerging mutations in capsid; also recorded: No resistance was selected
SHIV-SF162P3; same viral inoculum
  peak viremia, LEN-dosed infected vs untreated animals: no significant differences
HIV-1
  paEC95 (protein-adjusted EC95): 2.01 nM and 2.01 ± 1.22 nM
[1]
  serious adverse events or laboratory abnormalities: no serious adverse events or laboratory abnormalities related to LEN
[2]; 927 mg sc after oral lead-in
  time to reach efficacious target concentration after injection: ≤ 2 h
[2]; [3]
  efficacious target plasma concentration: 15.5 ng/mL
  efficacious target plasma concentration (human target Ctrough): 16 nM
